From the NIST ThermoML archive (doi:10.1021/je060139a)

Key:
[1] = xn = mol fraction of the nth substance listed; conditions: Wilhelmy plate method
[2] = refractive index (Na D-line) (dimensionless); xn = mol fraction of the nth substance listed; conditions: 100.5 kPa, Liquid, Standard Abbe refractometry

CCOC(=O)CC(C)C [ethyl 3-methylbutanoate] + CCO
Conditions | refractive index, [2] | surface tension liquid-gas, [1] [mN/m]
288.15 K, x1 = 0.05 | 1.3677 | 23.14
288.15 K, x1 = 0.1 | 1.37142 | 23.26
288.15 K, x1 = 0.15 | 1.37464 | 23.37
288.15 K, x1 = 0.2 | 1.37745 | 23.46
288.15 K, x1 = 0.25 | 1.37993 | 23.55
288.15 K, x1 = 0.3 | 1.38213 | 23.62
288.15 K, x1 = 0.35 | 1.3841 | 23.69
288.15 K, x1 = 0.4 | 1.38587 | 23.76
288.15 K, x1 = 0.45 | 1.38748 | 23.82
288.15 K, x1 = 0.5 | 1.38894 | 23.88
288.15 K, x1 = 0.55 | 1.39028 | 23.93
288.15 K, x1 = 0.6 | 1.39151 | 23.99
288.15 K, x1 = 0.65 | 1.39264 | 24.04
288.15 K, x1 = 0.7 | 1.39369 | 24.09
288.15 K, x1 = 0.75 | 1.39467 | 24.15
288.15 K, x1 = 0.8 | 1.39559 | 24.2
288.15 K, x1 = 0.85 | 1.39646 | 24.25
288.15 K, x1 = 0.9 | 1.39729 | 24.3
288.15 K, x1 = 0.95 | 1.39807 | 24.35
288.15 K, x1 = 1 | 1.3988 | 24.4
298.18 K, x1 = 0.05 | 1.36363 | 22.4
298.18 K, x1 = 0.1 | 1.36724 | 22.5
298.18 K, x1 = 0.15 | 1.37038 | 22.58
298.18 K, x1 = 0.2 | 1.37312 | 22.66
298.18 K, x1 = 0.25 | 1.37554 | 22.73
298.18 K, x1 = 0.3 | 1.37769 | 22.79
298.18 K, x1 = 0.35 | 1.37961 | 22.85
298.18 K, x1 = 0.4 | 1.38134 | 22.91
298.18 K, x1 = 0.45 | 1.38291 | 22.96
298.18 K, x1 = 0.5 | 1.38434 | 23
298.18 K, x1 = 0.55 | 1.38564 | 23.05
298.18 K, x1 = 0.6 | 1.38684 | 23.1
298.18 K, x1 = 0.65 | 1.38795 | 23.15
298.18 K, x1 = 0.7 | 1.38897 | 23.2
298.18 K, x1 = 0.75 | 1.38993 | 23.26
298.18 K, x1 = 0.8 | 1.39083 | 23.31
298.18 K, x1 = 0.85 | 1.39169 | 23.35
298.18 K, x1 = 0.9 | 1.3925 | 23.4
298.18 K, x1 = 0.95 | 1.39328 | 23.45
298.18 K, x1 = 1 | 1.39401 | 23.5
308.15 K, x1 = 0.05 | 1.35942 | 21.57
308.15 K, x1 = 0.1 | 1.36295 | 21.64
308.15 K, x1 = 0.15 | 1.36603 | 21.7
308.15 K, x1 = 0.2 | 1.36872 | 21.76
308.15 K, x1 = 0.25 | 1.3711 | 21.81
308.15 K, x1 = 0.3 | 1.37321 | 21.86
308.15 K, x1 = 0.35 | 1.3751 | 21.91
308.15 K, x1 = 0.4 | 1.3768 | 21.96
308.15 K, x1 = 0.45 | 1.37834 | 22
308.15 K, x1 = 0.5 | 1.37974 | –
308.15 K, x1 = 0.55 | 1.38102 | 22.04
308.15 K, x1 = 0.6 | 1.3822 | 22.08
308.15 K, x1 = 0.65 | 1.38329 | 22.13
308.15 K, x1 = 0.7 | 1.3843 | 22.17
308.15 K, x1 = 0.75 | 1.38524 | 22.22
308.15 K, x1 = 0.8 | 1.38613 | 22.27
308.15 K, x1 = 0.85 | 1.38698 | 22.31
308.15 K, x1 = 0.9 | 1.38779 | 22.36
308.15 K, x1 = 0.95 | 1.38857 | 22.41
308.15 K, x1 = 1 | 1.38931 | 22.45
318.15 K, x1 = 0.05 | 1.35545 | 20.65
318.15 K, x1 = 0.1 | 1.35888 | 20.72
318.15 K, x1 = 0.15 | 1.36186 | 20.78
318.15 K, x1 = 0.2 | 1.36447 | 20.83
318.15 K, x1 = 0.25 | 1.36679 | 20.88
318.15 K, x1 = 0.3 | 1.36884 | 20.94
318.15 K, x1 = 0.35 | 1.37068 | 20.99
318.15 K, x1 = 0.4 | 1.37233 | 21.03
318.15 K, x1 = 0.45 | 1.37383 | 21.08
318.15 K, x1 = 0.5 | 1.37519 | 21.12
318.15 K, x1 = 0.55 | 1.37644 | 21.17
318.15 K, x1 = 0.6 | 1.37759 | 21.21
318.15 K, x1 = 0.65 | 1.37865 | 21.26
318.15 K, x1 = 0.7 | 1.37964 | 21.3
318.15 K, x1 = 0.75 | 1.38056 | 21.35
318.15 K, x1 = 0.8 | 1.38143 | 21.4
318.15 K, x1 = 0.85 | 1.38226 | 21.45
318.15 K, x1 = 0.9 | 1.38306 | 21.5
318.15 K, x1 = 0.95 | 1.38384 | 21.55
318.15 K, x1 = 1 | 1.38458 | 21.6
